Patent US20050106226A1, “Pretreatment method and system for enhancing transdermal drug delivery” (priority 2003, published 2005)

What was measured:
[1] = Passive transdermal delivery of PPS from hydrogel gel patch after microprojection array pretreatment, determined by urinary excretion of tritium; type: in vivo, hairless guinea pig; settings: passive diffusion
Procedure: In this experiment, PPS was delivered by passive diffusion through skin pathways created by a pretreatment device having a microprojection array. The microprojection array comprised a stainless steel sheet having a thickness of 0.025 mm, trapezoidally shaped microprojections bent at an angle of approximately 90° to the plane of the sheet and a microprojection density of 241 microprojections/cm^2. […] The gel patch comprised a foam, double adhesive ring (diameter 3.8 cm, thickness 0.16 cm) having 0.35 mL of a hydrogel formulation and a skin contact area of 2 cm^2. The hydrogel formulation included tritiated PPS at 50 mg/mL in a 2% hydroxyethyl cellulose ([…], HERCULES Int. Lim. Netherlands, determined molecular weight: Mw 1890000, Mn 1050000) hydrogel. […] The amount of the biologically active agent (or drug) that penetrated the skin during selected time intervals was determined by measuring urinary excretion of tritium (previous studies had shown that in HGP's 32% of 3H-PPS injected intravenously is excreted in urine). […] After 24 h delivery, more than 6 mg of PPS had been administered systemically.

[2] = injected intravenously, HGP; cited from earlier work

pentosan polysulfate [PPS]
amount of PPS administered systemically ([1]; after 24 h delivery, tritiated PPS 50 mg/mL in 2% HEC hydrogel, 0.35 mL, 2 cm^2): more than 6 mg | flux of PPS through the skin ([1]; FIG. 19): time dependant flux | fraction of 3H-PPS excreted in urine [2]: 32%
